Calls of active or inactive are those of the source. The calls are words filed in the database; no cut-off is given here.
How the values were obtained:
[1] = molecular target: T1, M-phase inducer phosphatase 2 (Homo sapiens, UniProt P30305)
T1 sequence (P30305 whole entry): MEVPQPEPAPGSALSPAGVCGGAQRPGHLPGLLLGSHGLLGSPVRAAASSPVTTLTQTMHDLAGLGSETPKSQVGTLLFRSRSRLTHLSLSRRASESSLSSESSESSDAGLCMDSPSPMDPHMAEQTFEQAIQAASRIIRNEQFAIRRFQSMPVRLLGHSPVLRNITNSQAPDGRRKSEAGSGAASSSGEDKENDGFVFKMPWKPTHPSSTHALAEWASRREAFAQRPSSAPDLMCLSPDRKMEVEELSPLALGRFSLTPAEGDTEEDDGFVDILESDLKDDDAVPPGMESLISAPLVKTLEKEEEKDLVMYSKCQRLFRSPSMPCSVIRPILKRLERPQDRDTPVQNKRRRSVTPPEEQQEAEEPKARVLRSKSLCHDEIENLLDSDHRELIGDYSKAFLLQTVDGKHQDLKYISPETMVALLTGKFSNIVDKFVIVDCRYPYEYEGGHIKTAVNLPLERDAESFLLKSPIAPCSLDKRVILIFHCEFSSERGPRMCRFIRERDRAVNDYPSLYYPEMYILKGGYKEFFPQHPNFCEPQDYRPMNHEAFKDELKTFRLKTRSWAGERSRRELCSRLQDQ

[2] = molecular target: T2, Neutrophil elastase (Homo sapiens) (UniProt P08246); experiment: Inhibition of recombinant HNE (unknown origin) at <50 uM using N-methylsuccinyl-Ala-Ala-Pro-Val-7-amino-4-methylcoumarin, as a substrate measured every 30 sec for 10 mins by fluorometric assay
T2 sequence (whole entry): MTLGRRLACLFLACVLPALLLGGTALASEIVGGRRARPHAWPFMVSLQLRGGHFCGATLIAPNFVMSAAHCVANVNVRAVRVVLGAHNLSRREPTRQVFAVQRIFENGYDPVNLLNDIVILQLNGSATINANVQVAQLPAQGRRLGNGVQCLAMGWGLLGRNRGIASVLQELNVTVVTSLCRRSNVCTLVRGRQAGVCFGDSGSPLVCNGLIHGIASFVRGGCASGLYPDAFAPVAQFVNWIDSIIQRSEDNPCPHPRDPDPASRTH

[3] = molecular target: T3, Dual specificity mitogen-activated protein kinase kinase 7 (Homo sapiens) (UniProt O14733); experiment: Binding affinity to MKK7 (unknown origin) expressed in HEK293 cells assessed as dissociation constant at <30 uM by kinomescan method; assay type: cell-based
T3 sequence (whole entry): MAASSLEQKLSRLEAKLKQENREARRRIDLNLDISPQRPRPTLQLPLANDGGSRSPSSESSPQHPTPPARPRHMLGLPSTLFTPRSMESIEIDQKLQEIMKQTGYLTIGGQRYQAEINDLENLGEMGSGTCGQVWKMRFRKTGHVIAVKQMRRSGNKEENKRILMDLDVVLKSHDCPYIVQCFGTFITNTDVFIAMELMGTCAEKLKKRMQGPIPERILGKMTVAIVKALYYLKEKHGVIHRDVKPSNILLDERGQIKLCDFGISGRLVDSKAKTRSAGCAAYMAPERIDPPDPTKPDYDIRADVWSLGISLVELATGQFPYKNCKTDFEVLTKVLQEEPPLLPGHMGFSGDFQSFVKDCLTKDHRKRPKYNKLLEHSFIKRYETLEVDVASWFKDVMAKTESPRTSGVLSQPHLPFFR

[4] = molecular target: T4, M-phase inducer phosphatase 1 (Homo sapiens, UniProt P30304)
T4 sequence (P30304 whole entry): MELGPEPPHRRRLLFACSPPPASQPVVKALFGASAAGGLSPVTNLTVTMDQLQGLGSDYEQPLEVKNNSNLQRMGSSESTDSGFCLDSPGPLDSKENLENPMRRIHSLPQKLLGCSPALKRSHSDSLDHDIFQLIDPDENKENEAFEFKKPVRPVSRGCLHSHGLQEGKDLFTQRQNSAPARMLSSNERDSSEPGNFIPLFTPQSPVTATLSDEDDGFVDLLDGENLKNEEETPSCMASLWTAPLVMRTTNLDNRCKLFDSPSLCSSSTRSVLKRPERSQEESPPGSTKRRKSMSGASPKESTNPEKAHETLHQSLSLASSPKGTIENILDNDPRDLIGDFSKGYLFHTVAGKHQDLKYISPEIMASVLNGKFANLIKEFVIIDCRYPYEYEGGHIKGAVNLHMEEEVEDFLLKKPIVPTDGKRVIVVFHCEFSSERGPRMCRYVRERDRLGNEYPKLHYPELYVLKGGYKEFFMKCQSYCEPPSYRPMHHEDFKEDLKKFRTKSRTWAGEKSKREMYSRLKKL

A549 = experiment: Cytotoxicity against human A549 cells assessed as reduction in cell viability incubated for 24 hrs by CellTiter-Glo luminescent cell viability assay; assay type: functional, cell-based; conditions: for IC50: A549, 24 h
[5] = molecular target: T5, Dual specificity mitogen-activated protein kinase kinase 7 (Homo sapiens, UniProt O14733); experiment: biochemical
T5 sequence (O14733 whole entry): T3 sequence (whole entry)

MCF7 = experiment: Cytotoxicity against human MCF7 cells assessed as reduction in cell viability incubated for 24 hrs by CellTiter-Glo luminescent cell viability assay; assay type: functional, cell-based; conditions: MCF7, 24 h
U-937 = experiment: Cytotoxicity against human U937 cells assessed as reduction in cell viability incubated for 24 hrs by CellTiter-Glo luminescent cell viability assay; assay type: functional, cell-based; conditions: U-937, 24 h
HL-60 = experiment: Cytotoxicity against human HL60 cells assessed as reduction in cell viability incubated for 24 hrs by CellTiter-Glo luminescent cell viability assay; assay type: functional, cell-based; conditions: HL-60, 24 h
THP-1 = experiment: Cytotoxicity against human THP1 cells assessed as reduction in cell viability incubated for 24 hrs by CellTiter-Glo luminescent cell viability assay; assay type: functional, cell-based; conditions: THP-1, 24 h
SW982 = experiment: Cytotoxicity against human SW982 cells assessed as reduction in cell viability incubated for 24 hrs by CellTiter-Glo luminescent cell viability assay; assay type: functional, cell-based; conditions: SW982, 24 h
MONO-MAC-6 = experiment: Cytotoxicity against human MONO-MAC-6 cells assessed as reduction in cell viability incubated for 24 hrs by CellTiter-Glo luminescent cell viability assay; assay type: functional, cell-based; conditions: MONO-MAC-6, 24 h
LS174T = experiment: Cytotoxicity against human LS174T cells assessed as reduction in cell viability incubated for 24 hrs by CellTiter-Glo luminescent cell viability assay; assay type: functional, cell-based
Jurkat = experiment: cells; conditions: Homo sapiens, 24 h
PBMC = experiment: Cytotoxicity against human PBMC cells assessed as reduction in cell viability incubated for 24 hrs by CellTiter-Glo luminescent cell viability assay; assay type: cell-based

Activity [3]	SMILES	IC50 [1] [µM]	inhibition [2]	IC50 [4] [µM]	IC50 (A549) [µM]	IC50 (U-937) [µM]	IC50 (HL-60) [µM]	IC50 (THP-1) [µM]	IC50 (SW982) [µM]	IC50 (MONO-MAC-6) [µM]	IC50 (Jurkat) [µM]	also measured
	COC(=O)c1ccc(NC2=C(N3CCCCC3)C(=O)c3ccccc3C2=O)cc1	14.2	inactive	11.6								inhibition [3]: inactive
	COCCSC1=C(C)C(=O)c2ccccc2C1=O	6.5	inactive	5.7	18.6	5.3	1.6	2.2	9.7	1.7	3.2	Kd [5]: 14 µM; IC50 (MCF7): 14.9 µM; IC50 (LS174T): 15.7 µM
	O=C(O)c1ccc(NC2=C(Cl)C(=O)c3ccccc3C2=O)cc1	4.9	inactive	2.4	17.6	3.9	8.9	5.6	4.6	6	5.5	IC50 (MCF7): 14.5 µM; inhibition [3]: inactive; IC50 (PBMC; read-out: IC50): 13.1 µM; IC50 (LS174T): 9.9 µM
inactive	Cn1c(SCCC(=O)O)nc2ccccc2c1=O											
inactive	O=C(O)CSc1nc(O)c2ccccc2n1											
	CCN(CC)CCNC(=O)c1c(C)[nH]c(/C=C2\C(=O)Nc3ccc(F)cc32)c1C [SUNITINIB]					13.7			41.2			IC50 (PBMC): 46.3 µM
	O=C(O)CCCNC1=C(Cl)C(=O)c2ccccc2C1=O	10.9	inactive	8.2								inhibition [3]: inactive
	O=C(O)CCSC1=CC(=O)c2ccccc2C1=O	1.6	inactive	1.5		18.6	15	17.6	10.5	22	9.1	Kd [5]: 0.23 µM; IC50 (PBMC; read-out: IC50): 23.4 µM
	CC1=CC(=O)c2c(O)cccc2C1=O		inactive									
inactive	O=C(O)CCSc1nc(O)c2ccccc2n1											
inactive	O=C(O)CCCc1nc2ccccc2c(=O)[nH]1											
	O=C(O)CSC1=CC(=O)c2ccccc2C1=O	1	inactive	0.05	22.9	15.9	20.4		11.1	23.2	0.94	Activity (A549): inactive; Kd [5]: 1.4 µM

SMILES	Activity [3]	IC50 [1] [µM]	inhibition [2]	IC50 [4] [µM]	IC50 (A549) [µM]	IC50 (U-937) [µM]	IC50 (HL-60) [µM]	IC50 (THP-1) [µM]	IC50 (SW982) [µM]	IC50 (MONO-MAC-6) [µM]	IC50 (Jurkat) [µM]	also measured
COC1=CC(=O)c2ccccc2C1=O [2-Methoxy-1,4-naphthoquinone]	inactive	46.8	inactive	2.3	16.4	13.9	7.1	16.6	29.8	4.8	16.1	IC50 (MCF7): 6.1 µM; IC50 (PBMC; read-out: IC50): 29.8 µM; IC50 (LS174T): 33.7 µM

Reference: ChEMBL document CHEMBL4311981, “Synthesis, anticancer activity, and molecular modeling of 1,4-naphthoquinones that inhibit MKK7 and Cdc25” (Eur J Med Chem, 2019)
